These results are taken from patent publication US20190209539A1, “THIOHYDANTOIN ANDROGEN RECEPTOR ANTAGONISTS FOR THE TREATMENT OF CANCER” (Janssen Pharmaceutica NV, priority 2016, published 2019).

Molecules are shown by their SMILES. Numbering of substitutions follows the chain as printed.

Assay [1] has as its target T1, wild-type Androgen Receptor (AR-wt) (Homo sapiens, UniProt P10275).
T1 construct: expressed in transfected cells; host or cells: LNCaP AR (cs) cells with ARE firefly luciferase lentiviral construct
T1 sequence (P10275 1-920): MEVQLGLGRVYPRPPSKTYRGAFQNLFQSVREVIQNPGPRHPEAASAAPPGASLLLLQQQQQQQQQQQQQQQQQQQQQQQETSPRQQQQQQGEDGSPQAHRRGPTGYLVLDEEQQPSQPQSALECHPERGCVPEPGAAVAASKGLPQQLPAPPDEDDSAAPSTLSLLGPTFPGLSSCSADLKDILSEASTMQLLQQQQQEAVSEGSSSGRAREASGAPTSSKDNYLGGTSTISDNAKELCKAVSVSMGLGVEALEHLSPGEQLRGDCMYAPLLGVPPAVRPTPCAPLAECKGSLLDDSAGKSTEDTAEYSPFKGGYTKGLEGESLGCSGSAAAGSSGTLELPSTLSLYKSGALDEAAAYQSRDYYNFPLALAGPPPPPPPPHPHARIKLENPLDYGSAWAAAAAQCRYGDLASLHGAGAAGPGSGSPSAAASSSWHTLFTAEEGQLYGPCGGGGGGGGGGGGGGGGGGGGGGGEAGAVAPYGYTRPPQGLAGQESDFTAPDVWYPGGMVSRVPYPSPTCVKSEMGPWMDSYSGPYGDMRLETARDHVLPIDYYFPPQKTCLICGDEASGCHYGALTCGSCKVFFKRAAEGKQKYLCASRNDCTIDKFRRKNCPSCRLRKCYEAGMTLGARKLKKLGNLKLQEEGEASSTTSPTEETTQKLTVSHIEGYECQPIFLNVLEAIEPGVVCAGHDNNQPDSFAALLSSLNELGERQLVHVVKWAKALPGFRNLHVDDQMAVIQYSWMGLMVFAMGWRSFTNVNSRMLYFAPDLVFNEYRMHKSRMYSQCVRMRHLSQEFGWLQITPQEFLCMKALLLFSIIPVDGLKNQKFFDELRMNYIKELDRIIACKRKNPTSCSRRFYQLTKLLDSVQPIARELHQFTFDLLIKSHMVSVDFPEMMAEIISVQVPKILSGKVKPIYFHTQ
Briefly: LNCaP-AR-wt ANT: ARE luciferase reporter assay, antagonist mode. The format is cell-based. The procedure:
(§1) A stable pooled-population cell line was generated using puromycin (Life Technologies) selection at 1:10,000 v/v. The protocol below was used for both cell lines and for testing of the compounds of Formula (I) of the present invention.
(§2) LNCaP cells were grown to about 80% confluence, media removed and cells rinsed in Hank's balanced salt solution prior to separation from the plate with 0.05% Trypsin EDTA. Cells were lifted and trypsin negated in complete CSS (charcoal stripped serum) culture media. […] Agonist challenge was at 400 pM for WT assay and 600 pM for F876L assay. Plates containing cells and compounds herein were incubated for a further 20-24 hours at 37° C., 5% CO2 before addition of 40 μL/well of Steady-Glo Luciferase Assay System Reagent (Promega# E2520). After 1 h, plates were read for luminescence on a BMG Pherastar.
(§3) EC/IC50 calculations were achieved utilizing calculated RLU data and data fitting macros. Data were fit using least-squares methods to the following formula: […]
(§4) As used herein: pIC50 is defined as—Log10(IC50 expressed in [Molar]). pEC50 is defined as—Log10(EC50 expressed in [Molar]). […] LNCaP-AR-wt ANT refers to the reporter assay using LNCaP cells stably transfected with the Androgen Response Element Firefly Luciferase lentiviral construct and wild-type Androgen Receptor (AR-wt) in Antagonist mode. […]
(Reporter assays use an easily measured gene product as a stand-in for the process of interest.)

Assay [2] concerns the target T1, wild-type Androgen Receptor (AR-wt). Briefly: LNCaP-AR-wt AG: ARE luciferase reporter assay, agonist mode. Type of assay: cell-based. The procedure:
as §1, §2, §3
(§5) As used herein: pIC50 is defined as—Log10(IC50 expressed in [Molar]). pEC50 is defined as—Log10(EC50 expressed in [Molar]). […] LNCaP-AR-wt ANT refers to the reporter assay using LNCaP cells stably transfected with the Androgen Response Element Firefly Luciferase lentiviral construct and wild-type Androgen Receptor (AR-wt) in Antagonist mode. LNCaP-AR-wt AG refers to the reporter assay using LNCaP cells stably transfected with the Androgen Response Element Firefly Luciferase lentiviral construct and wild-type Androgen Receptor (AR-wt) in Agonist mode. LNCaP-AR-F876L ANT refers to the reporter assay using LNCaP cells stably transfected with the Androgen Response Element Firefly Luciferase lentiviral construct and F876L mutant Androgen Receptor (AR-F876L) in Antagonist mode. LNCaP-AR-F876L AG refers to the reporter assay using LNCaP cells stably transfected with the Androgen Response Element Firefly Luciferase lentiviral construct and F876L mutant Androgen Receptor (AR-F876L) in Agonist mode.

The target in assay [3] is T2, F876L mutant Androgen Receptor (AR-F876L) (Homo sapiens, UniProt P10275, F877L).
T2 construct: expressed in transfected cells; host or cells: LNCaP F876L cells with ARE firefly luciferase lentiviral construct
T2 sequence (P10275 1-920 F877L): T1 sequence (P10275 1-920) with F877L
Briefly: LNCaP-AR-F876L ANT: ARE luciferase reporter assay, antagonist mode. The format is cell-based. How it is done: as §1, §2, §3, §4

In assay [4] the target is T2, F876L mutant Androgen Receptor (AR-F876L). Briefly: LNCaP-AR-F876L AG: ARE luciferase reporter assay, agonist mode. The format is cell-based. How it is done:
as §1, §2, §3, §5

Assay [5] concerns the target T3, T877A AR mutant (Homo sapiens, UniProt P10275, T878A).
T3 sequence (P10275 1-920 T878A): T1 sequence (P10275 1-920) with T878A
The conditions noted are these: cited from earlier work.

The mark [6] stands for this setting: maximum % stimulation (agonist response), % of 1 μM R-1881 max.

With `CNC(=O)c1ccc(N2C(=S)N(c3cnc(C#N)c(C)c3)C(=O)C23CCCC3)cc1F` [Cpd 65, 4-[7-(6-cyano-5-methyl-3-pyridyl)-6-oxo-8-thioxo-7,9-diazaspiro[4.4]nonan-9-yl]-2-fluoro-N-methyl-benzamide], the IC50 in assay [1] (antagonist mode, 400 pM R-1881 challenge, read-out: LNCaP-AR-wt ANT pIC50 (converted)) was 417 nM; in assay [3] (antagonist mode, 600 pM R-1881 challenge, read-out: LNCaP-AR-F876L ANT pIC50 (converted)), 389 nM. The Emax in assay [1] (maximum % inhibition of R1881 control response over tested concentration range, read-out: LNCaP-AR-wt ANT MAX % Inh) stood at 97.8%; in assay [2] (maximum % stimulation (agonist response), % of 1 μM R-1881 max, read-out: LNCaP-AR-wt AG MAX % Stim), 1.2%; in assay [3] (maximum % inhibition of R1881 control response over tested concentration range, read-out: LNCaP-AR-F876L ANT MAX % Inh) it was 98.9%; in assay [4] (maximum % stimulation (agonist response), % of 1 μM R-1881 max, read-out: LNCaP-AR-F876L AG MAX % Stim), 0.8%. In addition, the EC50 is greater than 15100 nM in assay [2] (agonist mode, read-out: LNCaP-AR-wt AG pEC50 (converted)) and greater than 15100 nM in assay [4] (agonist mode, read-out: LNCaP-AR-F876L AG pEC50 (converted)).
Regarding `N#Cc1ncc(N2C(=O)C3(CCC3)N(c3ccc(C(=O)NCc4cccs4)c(F)c3)C2=S)cc1C(F)(F)F` [Cpd 59, 4-[6-[6-cyano-5-(trifluoromethyl)-3-pyridyl]-5-oxo-7-thioxo-6,8-diazaspiro[3.4]octan-8-yl]-2-fluoro-N-(2-thienylmethyl)benzamide], in assay [2] (setting [6]), the “LNCaP-AR-wt AG MAX % Stim” value came to 1.5%. Also, the “LNCaP-AR-F876L AG MAX % Stim” value in assay [4] (setting [6]) worked out at 0.7%.
As for `N#Cc1ncc(N2C(=O)C3(CCC3)N(c3cccc(CO)c3)C2=S)cc1C(F)(F)F` [Cpd 81, 5-[8-[3-(hydroxymethyl)phenyl]-5-oxo-7-thioxo-6,8-diazaspiro[3.4]octan-6-yl]-3-(trifluoromethyl)pyridine-2-carbonitrile], the “LNCaP-AR-wt AG MAX % Stim” value in assay [2] (setting [6]) is on record as 0.7%. Also, the “LNCaP-AR-F876L AG MAX % Stim” value in assay [4] (setting [6]) is given as 1.2%.
For `C#CCNC(=O)c1ccc(N2C(=S)N(c3cnc(C#N)c(C(F)(F)F)c3)C(=O)C23CCC3)cc1F` [Cpd 111, 4-[6-[6-cyano-5-(trifluoromethyl)-3-pyridyl]-5-oxo-7-thioxo-6,8-diazaspiro[3.4]octan-8-yl]-2-fluoro-N-prop-2-ynyl-benzamide], in that order: 0.5% and 2.7%.
Taken in the same sequence, the figures for `Cc1cc(N2C(=O)C3(CCC3)N(c3ccc(C(=O)Nc4nccs4)c(F)c3)C2=S)cnc1C#N` [Cpd 63, 4-[6-(6-cyano-5-methyl-3-pyridyl)-5-oxo-7-thioxo-6,8-diazaspiro[3.4]octan-8-yl]-2-fluoro-N-thiazol-2-yl-benzamide] were 0.7% and 0.3%.
Taken in the same sequence, the figures for `N#Cc1ncc(N2C(=O)C3(CCC3)N(c3ccc4ccccc4c3)C2=S)cc1C(F)(F)F` [Cpd 18, 5-[8-(2-naphthyl)-5-oxo-7-thioxo-6,8-diazaspiro[3.4]octan-6-yl]-3-(trifluoromethyl)pyridine-2-carbonitrile] were −0.2% and 0.0%.
For `N#Cc1ncc(N2C(=O)C3(CCC3)N(c3cccnc3)C2=S)cc1C(F)(F)F` [Cpd 9, 5-[5-oxo-8-(3-pyridyl)-7-thioxo-6,8-diazaspiro[3.4]octan-6-yl]-3-(trifluoromethyl)pyridine-2-carbonitrile], in assay [2] (setting [6]), the “LNCaP-AR-wt AG MAX % Stim” value is recorded as −0.2%. Moreover, the “LNCaP-AR-F876L AG MAX % Stim” value in assay [4] (setting [6]) was found to be 0.0%.
Consider `CC(C)(O)C(=O)Nc1ccc([N+](=O)[O-])c(C(F)(F)F)c1` [hydroxyflutamide], for which the “activity in T877A AR mutant” value in assay [5] is reported as “act as AR agonists”.
